In ChEMBL document CHEMBL3862012, “Methylene versus carbonyl bridge in the structure of new tubulin polymerization inhibitors with tricyclic A-rings” (Bioorg Med Chem, 2016):

Tests used:
[1] = Cytotoxicity against human SK-MEL-2 cells assessed as growth inhibition at 10 uM after 48 hrs by SRB assay relative to control; type: functional; settings: SK-MEL-2, 48 h, read-out: GI
[2] = Cytotoxicity against human ACHN cells assessed as growth inhibition at 10 uM after 48 hrs by SRB assay relative to control; type: functional; settings: read-out: GI
[3] = Cytotoxicity against human A498 cells assessed as growth inhibition at 10 uM after 48 hrs by SRB assay relative to control; type: functional; settings: A498, 48 h, read-out: GI
[4] = Cytotoxicity against human SR cells assessed as growth inhibition at 10 uM after 48 hrs by SRB assay relative to control; type: functional; settings: read-out: GI
[5] = Cytotoxicity against human SNB75 cells assessed as growth inhibition at 10 uM after 48 hrs by SRB assay relative to control; type: functional; settings: SNB-75, 48 h, read-out: GI
[6] = Cytotoxicity against human Hs 578T cells assessed as growth inhibition at 10 uM after 48 hrs by SRB assay relative to control; type: functional; settings: read-out: GI
[7] = Cytotoxicity against human HL-60(TB) cells assessed as growth inhibition at 10 uM after 48 hrs by SRB assay relative to control; type: functional; settings: HL-60, 48 h, read-out: GI
[8] = Cytotoxicity against human MDA-MB-231 cells assessed as growth inhibition at 10 uM after 48 hrs by SRB assay relative to control; type: functional; settings: MDA-MB-231, 48 h, read-out: GI
[9] = Cytotoxicity against human HCT116 cells assessed as growth inhibition at 10 uM after 48 hrs by SRB assay relative to control; type: functional; settings: HCT-116, 48 h, read-out: GI
[10] = Cytotoxicity against human SF295 cells assessed as growth inhibition at 10 uM after 48 hrs by SRB assay relative to control; type: functional; settings: SF-295, 48 h, read-out: GI
[11] = Cytotoxicity against human 786-0 cells assessed as growth inhibition at 10 uM after 48 hrs by SRB assay relative to control; type: functional; settings: 786-0, 48 h, read-out: GI
[12] = Cytotoxicity against human TK10 cells assessed as growth inhibition at 10 uM after 48 hrs by SRB assay relative to control; type: functional; settings: TK-10, 48 h, read-out: GI
[13] = Cytotoxicity against human HOP62 cells assessed as growth inhibition at 10 uM after 48 hrs by SRB assay relative to control; type: functional; settings: HOP-62, 48 h, read-out: GI
[14] = Cytotoxicity against human HOP92 cells assessed as growth inhibition at 10 uM after 48 hrs by SRB assay relative to control; type: functional; settings: HOP-92, 48 h, read-out: GI
[15] = Cytotoxicity against human OVCAR4 cells assessed as growth inhibition at 10 uM after 48 hrs by SRB assay relative to control; type: functional; settings: OVCAR-4, 48 h, read-out: GI
[16] = Cytotoxicity against human SF539 cells assessed as growth inhibition at 10 uM after 48 hrs by SRB assay relative to control; type: functional; settings: SF-539, 48 h, read-out: GI
[17] = Cytotoxicity against human RPMI8226 cells assessed as growth inhibition at 10 uM after 48 hrs by SRB assay relative to control; type: functional; settings: RPMI-8226, 48 h, read-out: GI
[18] = Cytotoxicity against human A549 cells assessed as growth inhibition at 10 uM after 48 hrs by SRB assay relative to control; type: functional; settings: A549, 48 h, read-out: GI
[19] = Cytotoxicity against human COLO205 cells assessed as growth inhibition at 10 uM after 48 hrs by SRB assay relative to control; type: functional; settings: COLO 205, 48 h, read-out: GI
[20] = Cytotoxicity against human M14 cells assessed as growth inhibition at 10 uM after 48 hrs by SRB assay relative to control; type: functional; settings: M14, 48 h, read-out: GI
[21] = Cytotoxicity against human BT549 cells assessed as growth inhibition at 10 uM after 48 hrs by SRB assay relative to control; type: functional; settings: BT-549, 48 h, read-out: GI
[22] = Cytotoxicity against human SF268 cells assessed as growth inhibition at 10 uM after 48 hrs by SRB assay relative to control; type: functional; settings: SF-268, 48 h, read-out: GI
[23] = Cytotoxicity against human T47D cells assessed as growth inhibition at 10 uM after 48 hrs by SRB assay relative to control; type: functional; settings: read-out: GI
[24] = Cytotoxicity against human MDA-MB-435 cells assessed as growth inhibition at 10 uM after 48 hrs by SRB assay relative to control; type: functional; settings: MDA-MB-435, 48 h, read-out: GI
[25] = Cytotoxicity against human MDA-MB-468 cells assessed as growth inhibition at 10 uM after 48 hrs by SRB assay relative to control; type: functional; settings: MDA-MB-468, 48 h, read-out: GI
[26] = Cytotoxicity against human SKOV3 cells assessed as growth inhibition at 10 uM after 48 hrs by SRB assay relative to control; type: functional; settings: SK-OV-3, 48 h, read-out: GI
[27] = Cytotoxicity against human U251 cells assessed as growth inhibition at 10 uM after 48 hrs by SRB assay relative to control; type: functional; settings: U-251, 48 h, read-out: GI
[28] = Cytotoxicity against human KM12 cells assessed as growth inhibition at 10 uM after 48 hrs by SRB assay relative to control; type: functional; settings: KM12, 48 h, read-out: GI
Ovis aries = organism: Ovis aries; assay: Inhibition of sheep brain tubulin polymerization at 100 uM by DAPI staining-based fluorimetric method relative to control
[29] = Cytotoxicity against human Caki1 cells assessed as growth inhibition at 10 uM after 48 hrs by SRB assay relative to control; type: functional; settings: CAKI-1, 48 h, read-out: GI
[30] = Cytotoxicity against human NCI-H522 cells assessed as growth inhibition at 10 uM after 48 hrs by SRB assay relative to control; type: functional; settings: NCI-H522, 48 h, read-out: GI
[31] = Cytotoxicity against human DU145 cells assessed as growth inhibition at 10 uM after 48 hrs by SRB assay relative to control; type: functional; settings: DU-145, 48 h, read-out: GI
[32] = Cytotoxicity against human NCI-ADR-RES cells assessed as growth inhibition at 10 uM after 48 hrs by SRB assay relative to control; type: functional; settings: read-out: GI
[33] = Cytotoxicity against human SNB19 cells assessed as growth inhibition at 10 uM after 48 hrs by SRB assay relative to control; type: functional; settings: SNB-19, 48 h, read-out: GI
[34] = Cytotoxicity against human UACC257 cells assessed as growth inhibition at 10 uM after 48 hrs by SRB assay relative to control; type: functional; settings: UACC-257, 48 h, read-out: GI
[35] = Cytotoxicity against human HCT15 cells assessed as growth inhibition at 10 uM after 48 hrs by SRB assay relative to control; type: functional; settings: HCT-15, 48 h, read-out: GI
[36] = Cytotoxicity against human NCI-H226 cells assessed as growth inhibition at 10 uM after 48 hrs by SRB assay relative to control; type: functional; settings: NCI-H226, 48 h, read-out: GI

| SMILES | inhibition of growth at 10 µM [1] [%] | inhibition of growth at 10 µM [2] [%] | inhibition of growth at 10 µM [4] [%] | inhibition of growth at 10 µM [5] [%] | inhibition of growth at 10 µM [6] [%] | inhibition of growth at 10 µM [7] [%] | inhibition of growth at 10 µM [8] [%] | inhibition of growth at 10 µM [9] [%] | inhibition of growth at 10 µM [10] [%] | inhibition of growth at 10 µM [11] [%] | inhibition of growth at 10 µM [12] [%] | inhibition of growth at 10 µM [13] [%] | inhibition of growth at 10 µM [14] [%] | inhibition of growth at 10 µM [15] [%] | inhibition of growth at 10 µM [16] [%] | inhibition of growth at 10 µM [17] [%] | inhibition of growth at 10 µM [18] [%] | inhibition of growth at 10 µM [19] [%] | inhibition of growth at 10 µM [20] [%] | inhibition of growth at 10 µM [21] [%] | also measured |
| --- | --- | --- | --- | --- | --- | --- | --- | --- | --- | --- | --- | --- | --- | --- | --- | --- | --- | --- | --- | --- | --- |
| COc1ccc(CN2c3ccccc3Oc3ccccc32)cc1F | 90 | 19 | 73 | 52 | 38 | 46 | 47 | 69 | 67 | 21 | 26 | 48 | 33 | 28 | 35 | 39 | 56 | 58 | 66 | 30 | inhibition of growth at 10 µM [3]: 46%; inhibition of growth at 10 µM [22]: 15%; inhibition of growth at 10 µM [23]: 42%; inhibition of growth at 10 µM [24]: 100%; inhibition of growth at 10 µM [25]: 56%; inhibition of growth at 10 µM [26]: 53%; inhibition of growth at 10 µM [27]: 60%; inhibition of growth at 10 µM [28]: 59%; inhibition (Ovis aries): 1%; inhibition of growth at 10 µM [29]: 41%; inhibition of growth at 10 µM [30]: 100%; inhibition of growth at 10 µM [31]: 4%; inhibition of growth at 10 µM [32]: 59%; inhibition of growth at 10 µM [33]: 32%; inhibition of growth at 10 µM [34]: 41%; inhibition of growth at 10 µM [35]: 53% |
| COc1ccc(CN2c3ccccc3CCc3ccccc32)cc1F | 73 | 64 | 88 | 77 | 70 | 100 | 83 | 98 | 88 | 66 | 37 | 63 | 64 | 58 | 100 | 91 | 79 | 100 | 100 | 46 | inhibition of growth at 10 µM [3]: 100%; inhibition of growth at 10 µM [36]: 47%; inhibition of growth at 10 µM [22]: 61%; inhibition of growth at 10 µM [23]: 53%; inhibition of growth at 10 µM [24]: 100%; inhibition of growth at 10 µM [25]: 96%; inhibition of growth at 10 µM [26]: 62%; inhibition of growth at 10 µM [27]: 79%; inhibition of growth at 10 µM [28]: 83%; inhibition (Ovis aries): 58%; inhibition of growth at 10 µM [29]: 70%; inhibition of growth at 10 µM [30]: 100%; inhibition of growth at 10 µM [31]: 91%; inhibition of growth at 10 µM [32]: 89%; inhibition of growth at 10 µM [33]: 61%; inhibition of growth at 10 µM [34]: 38%; inhibition of growth at 10 µM [35]: 75% |
| COc1ccc(CN2c3ccccc3Oc3ccccc32)cc1O | 100 | 64 | 83 | 73 | 69 | 84 | 43 | 86 | 86 | 57 | 36 | 58 | 67 | 45 | 84 | 86 | 62 | 9 | 82 | 60 | inhibition of growth at 10 µM [36]: 6%; inhibition of growth at 10 µM [22]: 43%; inhibition of growth at 10 µM [23]: 69%; inhibition of growth at 10 µM [24]: 91%; inhibition of growth at 10 µM [25]: 93%; inhibition of growth at 10 µM [26]: 69%; inhibition of growth at 10 µM [27]: 76%; inhibition of growth at 10 µM [28]: 79%; inhibition (Ovis aries): 4%; inhibition of growth at 10 µM [29]: 61%; inhibition of growth at 10 µM [30]: 100%; inhibition of growth at 10 µM [31]: 63%; inhibition of growth at 10 µM [32]: 75%; inhibition of growth at 10 µM [33]: 65%; inhibition of growth at 10 µM [34]: 61%; inhibition of growth at 10 µM [35]: 72% |
| COc1ccc(CN2c3ccccc3Sc3ccccc32)cc1O | 91 | 58 | 84 | 73 | 67 | 79 | 59 | 87 | 96 | 57 | 42 | 64 | 50 | 54 | 100 | 76 | 86 | 100 | 86 | 45 | inhibition of growth at 10 µM [3]: 24%; inhibition of growth at 10 µM [36]: 29%; inhibition of growth at 10 µM [22]: 54%; inhibition of growth at 10 µM [23]: 73%; inhibition of growth at 10 µM [24]: 99%; inhibition of growth at 10 µM [25]: 91%; inhibition of growth at 10 µM [26]: 71%; inhibition of growth at 10 µM [27]: 82%; inhibition of growth at 10 µM [28]: 82%; inhibition (Ovis aries): 64%; inhibition of growth at 10 µM [29]: 64%; inhibition of growth at 10 µM [30]: 100%; inhibition of growth at 10 µM [31]: 82%; inhibition of growth at 10 µM [32]: 82%; inhibition of growth at 10 µM [33]: 67%; inhibition of growth at 10 µM [34]: 48%; inhibition of growth at 10 µM [35]: 67% |
